Tests used:
[1] = tested on: NLRP3 inflammasome; assay: IL-1β release by LPS-primed macrophages stimulated with NLRP3 activators (ELISA); assay type: cell-based, mouse; settings: BMDM pretreated with A769662, LPS-primed, ATP and nigericin 40 min
Method: Macrophage culture and stimulation—Femurs and tibias from C57BL/6 mice, Ampkα1^−/− mice, and Il10rb^−/− mice at 6-10 weeks of age were used to generate bone-marrow-derived macrophages (BMDM) as described (Hornung et al., 2008). Macrophages were cultured in DMEM supplemented with 10% FBS, 20% L929-cell conditioned medium, and 100 U/ml penicillin-streptomycin for 7-10 days. Bone marrow was isolated from MWS Nlrp3^A350VneoRCreT, FCAS Nlrp3^L351PneoCreT and NOMID Nlrp3^D301NneoCreT conditional knock-in mice (Bonar et al., 2012; Brydges et al., 2009), and were allowed to differentiate over 7 days with addition of fresh mouse recombinant GMCSF every three days. (Z)-4-hydroxitamoxifen at 0.4 μg/ml was added to cells 24 hr prior to treatment to induce the mutant Nlrp3 allele. Immortalized mouse BMDM were grown in DMEM supplemented with 10% FBS and 100 U/ml penicillin-streptomycin. All cells were grown at 37° C. with 5% CO2. NLRP3 inflammasome activation was induced priming for 4 hr with ultrapure LPS (100 ng/ml) followed by treatment with the NLRP3 activators ATP (4 mM) and nigericin (10 μM) for 45 min, unless otherwise indicated, and monosodium urate (MSU) crystals (400 μg/ml) and 1,2-dioleoyl-3-trimethylammoniumpropane (DOTAP) liposomes (50 μg/ml) for 3 hr. In Nlrp3 mutant macrophages IL-1b production was induced by LPS treatment for 16 hr at 37° C., whereas FCAS macrophages were incubated at 32° C. without LPS addition. AIM2 inflammasome activation was induced by 4 hr LPS priming and transfection with lipofectamine 3000 and the AIM2 activator poly(dA:dT) (1 μg/ml) for 8 hr. For choline deprivation experiments, the cells were cultured in CMRL1066 medium with or without choline for 2-3 hr before priming with LPS and kept during the experiment.
(§1) Protein Immunoblotting and ELISA—Mitochondria were isolated using Mitochondria Isolation kit. Whole cell lysates were prepared in NP40 buffer containing a protease inhibitor cocktail and a phosphatase inhibitor cocktail, and supernatants were analyzed by SDS-PAGE. […]

[2] = tested on: Slc44a1/CTL1; assay: Slc44a1/CTL1 induction by LPS in BMDM (QPCR); assay type: cell-based, mouse; settings: BMS345541-pretreated BMDM treated with LPS
Method: RNA Isolation and Quantitative Real-Time PCT (QPCR)—RNA was extracted using AllPrep DNA/RNA Mini kit, and cDNA was synthesized using SUPERSCRIPT™ VILO™ cDNA Synthesis Kit. mRNA expression was determined by QPCR in a CFX96 thermal cycler (Biorad) as described (Zhong et al., 2016c). Data are presented in arbitrary units and were calculated by 2^(-delta delta CT) method. Primer sequences were obtained from the NIH qPrimerDepot (mouseprimerdepot.nci.nih.gov) and provided by Integrated DNA technologies, as set forth below.

[3] = tested on: C57BL/6 mice; assay: Synovium-like air pouch gout model (MSU crystals); assay type: in vivo, mouse
Method: Synovium-like air pouch gout model—Subcutaneous air pouches were generated by repeated injection of sterile air into 8-12-week old C57BL/6 mice to create an accessible space that develops a synovium-like membrane within 7 days as described (Wang et al., 2016). Afterward, mice were treated with MN58b IP (2.5 mg/kg) or vehicle, 24 hr before injecting lml MSU crystals (3 mg/ml) into the air pouch. Pouch tissue and fluids were harvested 8 hr later for analysis. None of the animals was excluded from the analysis.

[4] = tested on: C57BL/6 mice; assay: LPS-induced septic shock; assay type: in vivo, mouse
Method: LPS-induced septic shock and air pouch model—Eight- to twelve-week-old C57BL/6 mice were subjected to LPS-induced septic shock as described (Zhong et al., 2016c). Briefly, 50 mg/kg LPS was intraperitoneal (IP) injected, and when indicated, animals were pretreated with the ChoKα inhibitor MN58B 2.5 mg/kg or vehicle (sodium chloride) via IP injection daily, starting three days before LPS challenge. Mice were analyzed for survival and circulating cytokines (3 hr after LPS challenge). None of the animals was excluded from the analysis.

[5] = tested on: MWS Nlrp3^A350VneoRCreT mutant mice; assay: Muckle Wells Syndrome mice; assay type: in vivo, mouse; settings: 2.5 mg/kg IP BID for 15 days
Method: Muckle Wells Syndrome Mice—Sixteen- to twenty-two-week-old male MWS Nlrp3^A350VneoRCreT mutant mice were subjected to MN58b (2.5 mg/kg) or vehicle IP injection BID daily for 15 days. Tamoxifen (50 mg/kg) was administered daily via IP for 4 days after first MN58b (or vehicle) treatment, and once more on day 7 to maintain Cre expression. At the endpoint, blood, spleen and liver were collected for analysis. Complete blood counts were preformed using a ScilVet Animal Blood Counter (ABX Diagnostics). Livers were paraffin embedded and hematoxylin and eosine staining was performed to assess liver histology. None of the animals was excluded from the analysis and liver histology was blind examined.

[6] = tested on: CTL1; assay: CTL1 levels after colchicine treatment; assay type: cell-based
Chain of CTL1 (Q6X893 whole entry): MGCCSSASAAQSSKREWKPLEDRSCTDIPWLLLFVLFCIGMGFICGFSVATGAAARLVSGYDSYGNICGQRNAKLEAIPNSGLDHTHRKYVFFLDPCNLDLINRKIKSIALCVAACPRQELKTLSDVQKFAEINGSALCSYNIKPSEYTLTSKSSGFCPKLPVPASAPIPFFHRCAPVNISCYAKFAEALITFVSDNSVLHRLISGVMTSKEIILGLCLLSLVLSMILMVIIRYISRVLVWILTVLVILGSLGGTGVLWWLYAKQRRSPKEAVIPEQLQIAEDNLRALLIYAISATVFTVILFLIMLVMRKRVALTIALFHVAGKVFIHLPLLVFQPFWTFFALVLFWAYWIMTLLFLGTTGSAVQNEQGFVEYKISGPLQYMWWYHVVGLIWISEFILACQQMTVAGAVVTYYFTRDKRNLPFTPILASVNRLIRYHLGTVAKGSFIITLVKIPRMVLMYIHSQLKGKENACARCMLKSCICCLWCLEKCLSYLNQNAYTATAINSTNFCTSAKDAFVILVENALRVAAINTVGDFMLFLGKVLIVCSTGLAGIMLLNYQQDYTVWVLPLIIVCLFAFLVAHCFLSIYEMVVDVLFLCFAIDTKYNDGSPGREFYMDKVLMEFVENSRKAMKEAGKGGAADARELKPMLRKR

[7] = tested on: ChoKα; assay: ChoKα levels after colchicine treatment; assay type: cell-based
[8] = tested on: CTL1; assay: CTL1 protein expression in LPS stimulated BMDM (immunoblot); assay type: cell-based, mouse; settings: LPS stimulation
Method: Macrophage culture and stimulation—Femurs and tibias from C57BL/6 mice, Ampkα1^−/− mice, and Il10rb^−/− mice at 6-10 weeks of age were used to generate bone-marrow-derived macrophages (BMDM) as described (Hornung et al., 2008). Macrophages were cultured in DMEM supplemented with 10% FBS, 20% L929-cell conditioned medium, and 100 U/ml penicillin-streptomycin for 7-10 days. Bone marrow was isolated from MWS Nlrp3^A350VneoRCreT, FCAS Nlrp3^L351PneoCreT and NOMID Nlrp3^D301NneoCreT conditional knock-in mice (Bonar et al., 2012; Brydges et al., 2009), and were allowed to differentiate over 7 days with addition of fresh mouse recombinant GMCSF every three days. (Z)-4-hydroxitamoxifen at 0.4 μg/ml was added to cells 24 hr prior to treatment to induce the mutant Nlrp3 allele. Immortalized mouse BMDM were grown in DMEM supplemented with 10% FBS and 100 U/ml penicillin-streptomycin. All cells were grown at 37° C. with 5% CO2. […]
as §1

[9] = tested on: choline mobilization via the Kennedy pathway; assay: Choline, phosphocholine and phosphatidylcholine content of LPS-stimulated BMDM (NMR, MS); assay type: cell-based, mouse; settings: BMDM, LPS 4 hr
Method: Choline and Phosphocholine Analysis by NMR—BMDM were treated with LPS for 4 hr and then were collected and processed for NMR analysis as described (Guma et al., 2015a; Tiziani et al., 2009). Polar metabolite isolation was performed using a modified Bligh-Dyer procedure (Wu et al., 2008). Extracts were dried using a CentriVap refrigerated vacuum concentrator (Labconco, Kansas City, MO, USA). Dried extracts were reconstituted in 100 mM phosphate buffer (pH 7.0) prepared in 10% H2O/90% D2O (Sigma) that contained 0.5 mM sodium 3-(trimethylsilyl)propionate-2,2,3,3,-d4 (TMSP) as the internal standard. One-dimensional ^1H NMR spectra were acquired on a Bruker Avance III 500 MHz with 1.7 mm TCI MicroCryoProbe system (Bruker BioSpin Corp., Billerica, MA) equipped with an autosampler at 300 K and processed as previously described (Lodi et al., 2017; Lu et al., 2017; Ludwig and Gunther, 2011). Metabolite assignment and quantification were performed using the Chenomx 8.2 NMR Suite (Chenomx Inc., Edmonton, Alberta, Canada), the Birmingham Metabolite Library (Ludwig et al., 2012), and the Human Metabolome Database (Wishart et al., 2012).
Total phosphatidylcholine and mitochondrial lipids analysis by mass spectrometry—Total phosphatydilcholine (PC) analysis was measured in RSM932A-pretreated BMDM stimulated with LPS for 4 hr, while mitochondrial lipids were measured in mitochondria isolated from BMDM cultured in control or choline deficient medium and subjected to different treatments for 24 hr. Samples were processed for UHPLC-MS/MS analysis and analysis was performed on a hybrid quadrupole-Orbitrap mass spectrometer (Q Exactive, Thermo Scientific, Bremen, Germany) coupled to an Accela 1250 UHPLC system equipped with a quaternary pump, vacuum degasser, and open autosampler with temperature controller (6° C.; Fisher Scientific, San Jose, CA, USA). […]

`N#Cc1c(O)c2c(-c3ccc(-c4ccccc4O)cc3)csc2[nH]c1=O` [A769662] was tested, and the IL-1β production [1] was “significantly reduced”.

With `Cc1ccc2nc(NCCN)c3ncc(C)n3c2c1` [BMS345541] the Slc44a1/CTL1 induction [2] was “blocked”.

In the case of `CN(C)c1cc[n+](Cc2ccc(CCCCc3ccc(C[n+]4ccc(N(C)C)cc4)cc3)cc2)cc1.[Br-].[Br-]` [MN58b], the “total leukocyte recruitment into the pouch” value ([3]; 2.5 mg/kg 24 hr before MSU crystals) is reported as “attenuated”, the “production of IL-1β” value ([3]; 2.5 mg/kg 24 hr before MSU crystals, pouch) is reported as “reduced” and the “reduction of IL-1β release” value ([3]; 2.5 mg/kg IP 24 hr before MSU crystals, pouch harvested 8 hr later, p<0.01) is reported as 66%. For the same compound, the “reduction of MSU crystal-induced leukocyte recruitment” value ([3]; 2.5 mg/kg IP 24 hr before MSU crystals, pouch harvested 8 hr later, p<0.05) was 47%, the LPS-induced death ([4]; 2.5 mg/kg IP daily for 3 days before 50 mg/kg LPS IP) was “prevented” and the “circulating IL-1β” value ([4]; 2.5 mg/kg IP daily for 3 days before LPS, 3 hr after LPS) was “reduced”. The IL-6 production ([4]; circulating, 3 hr after LPS) was “did not inhibit”, the TNF production ([4]; circulating, 3 hr after LPS) was “did not inhibit” and the MWS splenomegaly [5] was “reduced”. The granulocytes [5] was “reduction”, the liver size [5] was “reduced” and the lymphocyte count [5] was “without an effect”. For the same compound, the monocytes [5] was “reduction” and the “total white blood cells count” value [5] was “reduction”.

For `COc1cc2c(c(OC)c1OC)-c1ccc(OC)c(=O)cc1[C@@H](NC(C)=O)CC2` [colchicine], the “reduction of CTL1 levels” value [6] was 90% and the “reduction of ChoKα levels” value [7] was 85%.

For lipopolysaccharide [LPS], the “increase of CTL1 expression” value [8] was 6 fold, the increase of phosphocholine ([9]; p<0.001) was 559% and the “increase of intracellular choline” value ([9]; p<0.01) was 238%.

From patent publication US12458659B2, “Methods for treating macrophage-mediated diseases, and methods of identifying agents useful therefore” (The Regents of the University of California, priority 2019, dated 2025)
